Assay results reported in the NIST ThermoML archive (doi:10.1021/je500792x).
± gives the expanded uncertainty stated by the source.

Assay: xn = mol fraction of the nth substance listed
Settings: Gas, Buoyancy - hydrostatic balance with magnetic suspension - two sinkers

C [methane] + CCC
Settings | mass density [kg/m3]
273.15 K, 497.16 kPa, x1 = 0.5069 | 6.8601 ± 0.0049
273.15 K, 500.89 kPa, x1 = 0.7498 | 5.2229 ± 0.0037
273.15 K, 503.23 kPa, x1 = 0.5069 | 6.9481 ± 0.0049
273.15 K, 506.93 kPa, x1 = 0.5069 | 7.0019 ± 0.0049
273.15 K, 537.7 kPa, x1 = 0.2658 | 9.4417 ± 0.0045
273.15 K, 542.15 kPa, x1 = 0.2658 | 9.5274 ± 0.0045
273.15 K, 556.33 kPa, x1 = 0.5069 | 7.7247 ± 0.0053
273.15 K, 562.21 kPa, x1 = 0.2658 | 9.9157 ± 0.0046
273.15 K, 568.57 kPa, x1 = 0.2658 | 10.0392 ± 0.0046
273.15 K, 598.52 kPa, x1 = 0.2658 | 10.627 ± 0.0048
273.15 K, 607.75 kPa, x1 = 0.5069 | 8.4837 ± 0.0055
273.15 K, 608.84 kPa, x1 = 0.2658 | 10.8307 ± 0.0048
273.15 K, 612.13 kPa, x1 = 0.5069 | 8.5493 ± 0.0055
273.15 K, 615.59 kPa, x1 = 0.2658 | 10.9644 ± 0.0048
273.15 K, 619.26 kPa, x1 = 0.5069 | 8.6551 ± 0.0055
273.15 K, 625.49 kPa, x1 = 0.5069 | 8.7476 ± 0.0062
273.15 K, 631.66 kPa, x1 = 0.5069 | 8.8402 ± 0.0059
273.15 K, 635.08 kPa, x1 = 0.2658 | 11.3537 ± 0.0049
273.15 K, 652.39 kPa, x1 = 0.2658 | 11.7011 ± 0.0049
273.15 K, 659.32 kPa, x1 = 0.2658 | 11.8408 ± 0.005
273.15 K, 701.31 kPa, x1 = 0.5069 | 9.8889 ± 0.0061
273.15 K, 705.87 kPa, x1 = 0.5069 | 9.9584 ± 0.0068
273.15 K, 711.71 kPa, x1 = 0.5069 | 10.0475 ± 0.0061
273.15 K, 781.92 kPa, x1 = 0.5069 | 11.1241 ± 0.007
273.15 K, 803.19 kPa, x1 = 0.5069 | 11.4547 ± 0.0086
273.15 K, 829.52 kPa, x1 = 0.5069 | 11.8643 ± 0.008
273.15 K, 888.98 kPa, x1 = 0.5069 | 12.8024 ± 0.008
273.15 K, 899.81 kPa, x1 = 0.7498 | 9.5966 ± 0.0051
273.15 K, 907.76 kPa, x1 = 0.5069 | 13.1006 ± 0.008
273.15 K, 930.25 kPa, x1 = 0.5069 | 13.4618 ± 0.0079
273.15 K, 971.91 kPa, x1 = 0.5069 | 14.1337 ± 0.0092
273.15 K, 986.2 kPa, x1 = 0.5069 | 14.3651 ± 0.009
273.15 K, 1000.4 kPa, x1 = 0.7498 | 10.7338 ± 0.0056
273.15 K, 1009.5 kPa, x1 = 0.5069 | 14.7469 ± 0.0091
273.15 K, 1015 kPa, x1 = 0.7498 | 10.9019 ± 0.0056
273.15 K, 1015.5 kPa, x1 = 0.5069 | 14.8424 ± 0.0091
273.15 K, 1041.7 kPa, x1 = 0.5069 | 15.2749 ± 0.0091
273.15 K, 1299.2 kPa, x1 = 0.7498 | 14.1894 ± 0.0059
273.15 K, 1500.9 kPa, x1 = 0.7498 | 16.5996 ± 0.0063
273.15 K, 1510.9 kPa, x1 = 0.7498 | 16.7231 ± 0.0063
273.15 K, 1700.4 kPa, x1 = 0.7498 | 19.0432 ± 0.0066
273.15 K, 1998.9 kPa, x1 = 0.7498 | 22.8321 ± 0.0072
273.15 K, 1999.7 kPa, x1 = 0.7498 | 22.8429 ± 0.0072
273.15 K, 2002 kPa, x1 = 0.7498 | 22.875 ± 0.0072
273.15 K, 2303.6 kPa, x1 = 0.7498 | 26.8673 ± 0.0099
293.14 K, 149.9 kPa, x1 = 0.2658 | 2.2913 ± 0.0033
293.14 K, 469.3 kPa, x1 = 0.2658 | 7.4652 ± 0.0038
293.14 K, 568.75 kPa, x1 = 0.2658 | 9.168 ± 0.0044
293.14 K, 1056.3 kPa, x1 = 0.2658 | 18.3225 ± 0.0065
293.14 K, 1105.7 kPa, x1 = 0.2658 | 19.3404 ± 0.0066
293.14 K, 1807.2 kPa, x1 = 0.5069 | 25.9503 ± 0.014
293.15 K, 258.04 kPa, x1 = 0.2658 | 3.9961 ± 0.0035
293.15 K, 355.08 kPa, x1 = 0.2658 | 5.5657 ± 0.0037
293.15 K, 393.88 kPa, x1 = 0.5069 | 4.9714 ± 0.0043
293.15 K, 613.82 kPa, x1 = 0.5069 | 7.8849 ± 0.0052
293.15 K, 655.65 kPa, x1 = 0.2658 | 10.6963 ± 0.0046
293.15 K, 803.74 kPa, x1 = 0.5069 | 10.489 ± 0.0069
293.15 K, 857.4 kPa, x1 = 0.2658 | 14.4071 ± 0.0054
293.15 K, 955.25 kPa, x1 = 0.2658 | 16.2977 ± 0.0064
293.15 K, 1006.2 kPa, x1 = 0.5069 | 13.3634 ± 0.0087
